The values that follow are results of earlier work, collected in patent US20050245613A1, “Use of gaba-b receptor positive modulators in gastro-intestinal disorders” (priority 2002, published 2005).

For series [1], the system named is vagal afferent and efferent fibers.
Series [2] concerns GERD patients.
For series [3], the system named is GERD patients. The note with it: long-term recording of esophageal pH.

With `NCC(CC(=O)O)c1ccc(Cl)cc1` (stereo not drawn) [Baclofen], in series [1], the “sensitivity of vagal afferent and efferent fibers” value is “reduce the sensitivity of vagal afferent and efferent fibers”. For the same compound, the “frequency of TLESR” value in the series with ferrets, in the series with dogs, in the series on GERD patients [2] and with healthy subjects was “reduces the frequency of TLESR” throughout. Besides, the esophageal acid exposure entry in the series on GERD patients [3] was “significant reduction in esophageal acid exposure”.
